The source made the active and inactive calls. No cut-off for these calls is given here.
How the values were obtained:
[1] = system: Protein cereblon/Androgen receptor (Homo sapiens), P10275+Q96SW2 [UNDEFINED MUTATION]; assay: PROTAC activity at AR-V7/CRBN in human 22Rv1 cells assessed as induction of AR-V7 degradation at 1 uM incubated for 24 hrs by Western blot analysis relative to control; type: cell-based; details: CWR22R
CWR22R [2] = assay: Antiproliferative activity against human 22Rv1 cells incubated for 4 days by CCK-8 assay; type: functional, cell-based; details: 22Rv1, 96 h
[3] = molecular target: T1, Protein cereblon/Androgen receptor (Homo sapiens, UniProt P10275+Q96SW2); assay: PROTAC activity at full length Androgen receptor/CRBN in human 22Rv1 cells assessed as induction of full length Androgen receptor degradation at 1 uM incubated for 24 hrs by Western blot analysis relative to control; type: cell-based
[4] = molecular target: T1, Protein cereblon/Androgen receptor; assay: PROTAC activity at full length Androgen receptor/CRBN in human 22Rv1 cells assessed as induction of full length Androgen receptor degradation at 5 uM incubated for 24 hrs by Western blot analysis relative to control; type: cell-based
[5] = system: Protein cereblon/Androgen receptor (Homo sapiens), P10275+Q96SW2 [UNDEFINED MUTATION]; assay: PROTAC activity at AR-V7/CRBN in human 22Rv1 cells assessed as induction of AR-V7 degradation at 5 uM incubated for 24 hrs by Western blot analysis relative to control; type: cell-based; details: CWR22R
CWR22R [6] = assay: Inhibition of colony formation in human 22Rv1 cells assessed as reduction in colony formation incubated for 14 days; type: functional, cell-based; details: dose 1-100 nM, time 14.0 day
CWR22R [7] = assay: Induction of apoptosis in human 22Rv1 cells assessed as viable cells at 100 nM incubated for 48 hrs by Annexin V/FITC staining based flow cytometry analysis (reference value: 94.49%); type: functional; details: read-out: Activity
CWR22R [8] = assay: Induction of apoptosis in human 22Rv1 cells assessed as early apoptotic cells at 100 nM incubated for 48 hrs by Annexin V/FITC staining based flow cytometry analysis (reference value: 2.08 %); type: functional
CWR22R [9] = assay: Induction of apoptosis in human 22Rv1 cells assessed as late apoptotic cells at 100 nM incubated for 48 hrs by Annexin V/FITC staining based flow cytometry analysis (reference value: 1.12 %); type: functional
CWR22R [10] = assay: Induction of apoptosis in human 22Rv1 cells assessed as necrotic cells at 100 nM incubated for 48 hrs by Annexin V/FITC staining based flow cytometry analysis (reference value: 2.31 %); type: functional
CWR22R [11] = assay: Induction of cell cycle arrest in human 22Rv1 cells assessed as accumulation of cells at G0/G1 phase at 100 nM incubated for 24 hrs by PI staining based flow cytometry analysis (reference value: 62.66%); type: functional
CWR22R [12] = assay: Induction of cell cycle arrest in human 22Rv1 cells assessed as accumulation of cells at S phase at 100 nM incubated for 24 hrs by PI staining based flow cytometry analysis (reference value: 28.73%); type: functional
CWR22R [13] = assay: Induction of cell cycle arrest in human 22Rv1 cells assessed as accumulation of cells at G2/M phase at 100 nM incubated for 24 hrs by PI staining based flow cytometry analysis (reference value: 8.61%); type: functional
[14] = system: Androgen receptor (Homo sapiens), P10275 [UNDEFINED MUTATION]; assay: Binding affinity to AR-V7 in human 22Rv1 cells assessed as thermal stabilization at 10 uM incubated for 24 hrs by CETSA analysis; type: cell-based
[15] = molecular target: T2, Androgen receptor (Homo sapiens) (UniProt P10275); assay: Binding affinity to Androgen receptor in human 22Rv1 cells assessed as thermal stabilization at 10 uM incubated for 24 hrs by CETSA analysis; type: cell-based
T2 sequence (whole entry): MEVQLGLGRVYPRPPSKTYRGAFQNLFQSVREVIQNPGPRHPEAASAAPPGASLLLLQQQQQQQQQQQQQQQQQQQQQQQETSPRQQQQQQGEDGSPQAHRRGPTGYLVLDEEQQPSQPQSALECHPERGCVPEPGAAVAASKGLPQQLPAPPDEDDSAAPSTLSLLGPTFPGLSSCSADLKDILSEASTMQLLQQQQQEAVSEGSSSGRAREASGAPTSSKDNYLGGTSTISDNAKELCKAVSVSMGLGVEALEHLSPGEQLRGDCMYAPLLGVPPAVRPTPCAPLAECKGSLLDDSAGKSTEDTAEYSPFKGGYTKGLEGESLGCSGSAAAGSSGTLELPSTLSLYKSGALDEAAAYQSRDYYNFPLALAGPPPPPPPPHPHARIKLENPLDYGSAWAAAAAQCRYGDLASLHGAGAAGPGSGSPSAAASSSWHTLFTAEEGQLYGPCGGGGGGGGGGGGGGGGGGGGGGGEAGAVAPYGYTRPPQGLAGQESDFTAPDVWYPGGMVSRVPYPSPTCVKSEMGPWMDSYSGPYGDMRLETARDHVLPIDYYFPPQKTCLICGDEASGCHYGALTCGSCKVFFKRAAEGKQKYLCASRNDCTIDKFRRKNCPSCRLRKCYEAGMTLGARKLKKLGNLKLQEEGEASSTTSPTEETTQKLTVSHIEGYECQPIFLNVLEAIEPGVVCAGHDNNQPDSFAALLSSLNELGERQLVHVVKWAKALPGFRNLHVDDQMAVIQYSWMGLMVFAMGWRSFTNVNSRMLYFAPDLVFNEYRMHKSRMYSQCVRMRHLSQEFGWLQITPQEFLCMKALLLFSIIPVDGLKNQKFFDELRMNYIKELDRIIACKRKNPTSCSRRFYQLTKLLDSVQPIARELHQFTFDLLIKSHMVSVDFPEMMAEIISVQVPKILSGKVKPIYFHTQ

[16] = system: Androgen receptor (Homo sapiens), P10275 [UNDEFINED MUTATION]; assay: Binding affinity to AR-V7 in human 22Rv1 cells at 10 uM incubated for 24 hrs by SPR analysis; type: cell-based
[17] = molecular target: T2, Androgen receptor (Homo sapiens); assay: Binding affinity to Androgen receptor in human 22Rv1 cells at 10 uM incubated for 24 hrs by SPR analysis; type: cell-based

Chain of Protein cereblon/Androgen receptor (Homo sapiens), P10275+Q96SW2 [UNDEFINED MUTATION] (Q96SW2 whole entry, looked up, stated change not applied, one chain of several): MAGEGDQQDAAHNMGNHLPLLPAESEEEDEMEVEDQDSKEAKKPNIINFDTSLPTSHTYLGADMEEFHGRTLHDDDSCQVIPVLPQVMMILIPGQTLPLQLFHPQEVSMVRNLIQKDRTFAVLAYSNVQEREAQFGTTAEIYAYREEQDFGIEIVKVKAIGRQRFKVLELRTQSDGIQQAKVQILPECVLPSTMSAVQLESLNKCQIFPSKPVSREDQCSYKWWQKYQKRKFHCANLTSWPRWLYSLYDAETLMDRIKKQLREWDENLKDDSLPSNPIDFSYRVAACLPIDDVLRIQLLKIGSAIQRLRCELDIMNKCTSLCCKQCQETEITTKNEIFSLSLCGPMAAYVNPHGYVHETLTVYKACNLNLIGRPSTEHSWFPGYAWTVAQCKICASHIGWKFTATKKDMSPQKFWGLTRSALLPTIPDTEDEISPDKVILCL
T1 sequence (Q96SW2 whole entry, looked up, one chain of several): as the sequence (Q96SW2 whole entry, looked up, stated change not applied, one chain of several) above

| SMILES | Activity [1] [%] | IC50 (CWR22R [2]) [µM] | Activity [3] [%] | Activity [4] [%] | Activity [5] [%] | further results |
| --- | --- | --- | --- | --- | --- | --- |
| CC(C)(c1ccc(OCC(=O)NCCCNc2ccc3c(c2)C(=O)N(C2CCC(=O)NC2=O)C3=O)cc1)c1ccc(OCC(O)CCl)cc1 (configuration not stated) | < 10 | > 20 | < 10 | < 10 | < 10 | – |
| CC(C)(c1ccc(OCC(=O)NC2CCN(c3cccc4c3C(=O)N(C3CCC(=O)NC3=O)C4=O)CC2)cc1)c1ccc(OCc2cccc(N3CCOCC3)n2)cc1 (configuration not stated) | < 10 | > 20 | < 10 | 28.3 | 48.7 | – |
| CC(C)(c1ccc(OCCCCCCNc2ccc3c(c2)C(=O)N(C2CCC(=O)NC2=O)C3=O)cc1)c1ccc(OCC(O)CCl)cc1 (configuration not stated) | 74.7 | 2.17 | 90 | < 10 | 21.2 | – |
| CC(C)(c1ccc(OCCCCNc2ccc3c(c2)C(=O)N(C2CCC(=O)NC2=O)C3=O)cc1)c1ccc(OCC(O)CCl)cc1 (configuration not stated) | 55.1 | 3.11 | 88.1 | 81.1 | 23.6 | – |
| CC(C)(c1ccc(OC[C@H](O)CO)cc1)c1ccc(OC[C@H](O)CCl)cc1 | < 10 | > 20 | < 10 | < 10 | < 10 | inhibition (CWR22R [6]): Weak_effect; viability at 0.1 µM (CWR22R [7]): 80.7%; Activity (CWR22R [8]): 13.9%; Activity (CWR22R [9]): 4.6%; Activity (CWR22R [10]): 0.78%; Activity (CWR22R [11]): 50.06%; Activity (CWR22R [12]): 38.87%; Activity (CWR22R [13]): 11.07% |
| CC(C)(c1ccc(OCC(=O)NCCN2CCN(c3cccc4c3C(=O)N(C3CCC(=O)NC3=O)C4=O)CC2)cc1)c1ccc(OCc2cccc(N3CCOCC3)n2)cc1 (configuration not stated) | < 10 | > 20 | < 10 | < 10 | < 10 | – |
| CC(C)(c1ccc(OCC(=O)N2CCC(N3CCN(c4ccc5c(c4)C(=O)N(C4CCC(=O)NC4=O)C5=O)CC3)CC2)cc1)c1ccc(OCC(O)CCl)cc1 (configuration not stated) | 33.2 | > 20 | < 10 | < 10 | < 10 | – |
| CC(C)(c1ccc(OCC(=O)NC2CCN(c3ccc4c(c3)C(=O)N(C3CCC(=O)NC3=O)C4=O)CC2)cc1)c1ccc(OCC(O)CCl)cc1 (configuration not stated) | 68.8 | 3.61 | 75.2 | 45.2 | 71.4 | – |
| CC(C)(c1ccc(OCC(=O)NCCCCCCNc2ccc3c(c2)C(=O)N(C2CCC(=O)NC2=O)C3=O)cc1)c1ccc(OCC(O)CCl)cc1 (configuration not stated) | 32.2 | 11.4 | 84.1 | 72.1 | < 10 | – |
| CC(C)(c1ccc(OCC(=O)NCCCCNc2ccc3c(c2)C(=O)N(C2CCC(=O)NC2=O)C3=O)cc1)c1ccc(OCC(O)CCl)cc1 (configuration not stated) | < 10 | > 20 | < 10 | < 10 | < 10 | – |
| CC(C)(c1ccc(OCC(=O)NCCCNc2cccc3c2C(=O)N(C2CCC(=O)NC2=O)C3=O)cc1)c1ccc(OCC(O)CCl)cc1 (configuration not stated) | 80.1 | 1.11 | 88.1 | 91.1 | 93.6 | – |
| CC(C)(c1ccc(OCCCCCCNc2cccc3c2C(=O)N(C2CCC(=O)NC2=O)C3=O)cc1)c1ccc(OCC(O)CCl)cc1 (configuration not stated) | 79.5 | 6.45 | 16.7 | < 10 | 93 | – |
| CC(C)(c1ccc(OCC(=O)NC2CN(c3cccc4c3C(=O)N(C3CCC(=O)NC3=O)C4=O)C2)cc1)c1ccc(OCC(O)CCl)cc1 (configuration not stated) | 67.7 | 1.17 | 80.1 | 89 | 88.2 | – |
| CC(C)(c1ccc(OCC(=O)NCCOCCOCCOCCNc2cccc3c2C(=O)N(C2CCC(=O)NC2=O)C3=O)cc1)c1ccc(OCc2cccc(N3CCOCC3)n2)cc1 (configuration not stated) | < 10 | 11.2 | 42.5 | 83.5 | 40 | – |
| CC(C)(c1ccc(OCC(=O)N2CCC(CNc3ccc4c(c3)C(=O)N(C3CCC(=O)NC3=O)C4=O)CC2)cc1)c1ccc(OCC(O)CCl)cc1 (configuration not stated) | < 10 | 15 | < 10 | 69.6 | 79.9 | – |
| CC(C)(c1ccc(OCC(=O)NC2CN(c3ccc4c(c3)C(=O)N(C3CCC(=O)NC3=O)C4=O)C2)cc1)c1ccc(OCC(O)CCl)cc1 (configuration not stated) | 62.1 | > 20 | < 10 | 22.3 | 69.8 | – |
| CC(C)(c1ccc(OCCCNc2cccc3c2C(=O)N(C2CCC(=O)NC2=O)C3=O)cc1)c1ccc(OCC(O)CCl)cc1 (configuration not stated) | 58.7 | 9.77 | 52.1 | 58.3 | 83.1 | – |
| CC(C)(c1ccc(OCCCCNc2cccc3c2C(=O)N(C2CCC(=O)NC2=O)C3=O)cc1)c1ccc(OCC(O)CCl)cc1 (configuration not stated) | 78.1 | 9.05 | < 10 | 31.3 | 89.3 | – |
| CC(C)(c1ccc(OCC(=O)NCCNc2ccc3c(c2)C(=O)N(C2CCC(=O)NC2=O)C3=O)cc1)c1ccc(OCC(O)CCl)cc1 (configuration not stated) | < 10 | > 20 | < 10 | < 10 | < 10 | – |
| CC(C)(c1ccc(OCCNc2cccc3c2C(=O)N(C2CCC(=O)NC2=O)C3=O)cc1)c1ccc(OCC(O)CCl)cc1 (configuration not stated) | 87.2 | 7.77 | 82.5 | < 10 | 87 | – |
| CC(C)(c1ccc(OCC(=O)NCCCNc2cccc3c2C(=O)N(C2CCC(=O)NC2=O)C3=O)cc1)c1ccc(OCc2cccc(N3CCOCC3)n2)cc1 (configuration not stated) | < 10 | 7.44 | 22.1 | 78.6 | 55.5 | – |
| CC(C)(c1ccc(OCc2cccc(N3CCOCC3)n2)cc1)c1ccc(OCC2CCN(c3cccc4c3C(=O)N(C3CCC(=O)NC3=O)C4=O)CC2)cc1 (configuration not stated) | < 10 | > 20 | < 10 | < 10 | < 10 | – |
| CC(C)(c1ccc(O)cc1)c1ccc(OCc2cccc(N3CCOCC3)n2)cc1 | – | – | – | – | – | Activity [14]: inactive; Activity [15]: inactive; Activity [16]: Active; Activity [17]: Active |
| CC(C)(c1ccc(OCC(=O)NCCCCCNc2ccc3c(c2)C(=O)N(C2CCC(=O)NC2=O)C3=O)cc1)c1ccc(OCC(O)CCl)cc1 (configuration not stated) | < 10 | > 20 | < 10 | < 10 | < 10 | – |

From ChEMBL document CHEMBL6153032, “Discovery of a highly potent, N-terminal domain-targeting degrader of AR-FL/AR-V7 for the treatment of prostate cancer” (Eur J Med Chem, 2025)
